ChEMBL document CHEMBL1133126, “Non-peptidic phenyl-based thrombin inhibitors: exploring structural requirements of the S1 specificity pocket with amidines” (Bioorg Med Chem Lett, 2000)

Key:
Prothrombin = Prothrombin (Homo sapiens, UniProt P00734); assay: Compound was evaluated for inhibition of Thrombin
[1] = target: T1, Serine protease 1 (Bos taurus) (UniProt P00760); assay: Compound was evaluated for inhibition of Trypsin at 15 uM
T1 sequence (whole entry): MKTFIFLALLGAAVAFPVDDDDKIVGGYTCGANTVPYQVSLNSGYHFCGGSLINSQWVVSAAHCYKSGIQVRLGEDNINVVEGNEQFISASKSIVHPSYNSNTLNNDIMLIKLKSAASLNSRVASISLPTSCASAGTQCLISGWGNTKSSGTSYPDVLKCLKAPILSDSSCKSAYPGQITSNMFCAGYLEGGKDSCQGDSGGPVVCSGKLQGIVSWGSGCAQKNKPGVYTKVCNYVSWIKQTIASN

Coagulation factor X [2] = target: T2, Coagulation factor X (Homo sapiens, UniProt P00742); assay: Compound was evaluated for inhibition of Coagulation factor X at […]
T2 sequence (P00742 41-179 limits assumed): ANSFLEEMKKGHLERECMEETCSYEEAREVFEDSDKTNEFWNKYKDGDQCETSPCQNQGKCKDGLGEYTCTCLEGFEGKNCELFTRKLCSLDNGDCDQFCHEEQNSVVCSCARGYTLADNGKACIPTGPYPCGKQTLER
T2 sequence (P00742 235-488 limits assumed): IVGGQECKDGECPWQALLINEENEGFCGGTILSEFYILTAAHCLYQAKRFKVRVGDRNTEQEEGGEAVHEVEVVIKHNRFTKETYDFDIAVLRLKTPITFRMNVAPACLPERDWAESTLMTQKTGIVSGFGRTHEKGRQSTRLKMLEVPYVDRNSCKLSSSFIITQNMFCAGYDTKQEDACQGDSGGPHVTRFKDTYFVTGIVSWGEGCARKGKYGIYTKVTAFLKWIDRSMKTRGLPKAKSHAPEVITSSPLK

Coagulation factor X [3] = target: T2, Coagulation factor X; assay: Compound was evaluated for inhibition of Coagulation factor X at 1 uM
[4] = target: T3, Chymotrypsin-C (Homo sapiens) (UniProt Q99895); assay: Compound was evaluated for inhibition of Serine protease chymotrypsin at 1 uM
T3 sequence (whole entry): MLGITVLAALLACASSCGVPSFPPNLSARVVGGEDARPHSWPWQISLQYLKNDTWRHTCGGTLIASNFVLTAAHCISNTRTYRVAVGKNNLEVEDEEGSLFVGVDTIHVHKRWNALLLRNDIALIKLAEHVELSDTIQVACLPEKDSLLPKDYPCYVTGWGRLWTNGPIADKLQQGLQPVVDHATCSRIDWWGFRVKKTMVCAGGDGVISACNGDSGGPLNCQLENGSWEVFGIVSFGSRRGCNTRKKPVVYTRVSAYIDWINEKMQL

[5] = target: T1, Serine protease 1 (Bos taurus); assay: Compound was evaluated for inhibition of Trypsin at 1 uM
Serine protease 1 = target: T4, Serine protease 1 (Bos taurus, UniProt P00760); assay: Compound was evaluated for inhibition of Trypsin
T4 sequence (P00760 whole entry): T1 sequence (whole entry)

Coagulation factor X [6] = target: T2, Coagulation factor X; assay: Compound was evaluated for inhibition of Coagulation factor X at 7.5 uM
[7] = target: T3, Chymotrypsin-C (Homo sapiens); assay: Compound was evaluated for inhibition of Serine protease chymotrypsin at 15 uM
[8] = target: T1, Serine protease 1 (Bos taurus); assay: Compound was evaluated for inhibition of Trypsin at uM; conditions: concentration not given here
Coagulation factor X [9] = target: T2, Coagulation factor X; assay: Compound was evaluated for inhibition of Coagulation factor X
[10] = target: T3, Chymotrypsin-C (Homo sapiens); assay: Compound was evaluated for inhibition of Serine protease chymotrypsin at […]
Coagulation factor X [11] = target: T2, Coagulation factor X; assay: Compound was evaluated for inhibition of Coagulation factor X at 1.6 uM
[12] = target: T1, Serine protease 1 (Bos taurus); assay: Compound was evaluated for inhibition of Trypsin at 1.6 uM
[13] = target: T3, Chymotrypsin-C (Homo sapiens); assay: Compound was evaluated for inhibition of Serine protease chymotrypsin at 1.7 uM

Cc1cc(OCCCCCC(=N)N)cc(OS(=O)(=O)c2ccccc2Cl)c1
Ki (Prothrombin): 0.069 µM
inhibition [1]: 0%
inhibition (Coagulation factor X [2]): 0%

CC(=N)N1CCC(COc2cc(C)cc(OS(=O)(=O)c3ccccc3Cl)c2)CC1
inhibition (Coagulation factor X [3]): 0%
inhibition [4]: 0%
inhibition [5]: 0%

Cc1cc(OCCCCN=C(N)N)cc(OS(=O)(=O)c2ccccc2Cl)c1
Ki (Serine protease 1): 42 µM

Cc1cc(OCCCC(=N)N)cc(OS(=O)(=O)c2ccccc2Cl)c1
inhibition (Coagulation factor X [6]): 0%
inhibition [7]: 0%
Ki (Prothrombin): 0.46 µM
inhibition [8]: 0%

Cc1cc(OCC2CCN(C(=N)N)CC2)cc(OS(=O)(=O)c2ccccc2Cl)c1
Ki (Coagulation factor X [9]): > 15 µM
Ki (Serine protease 1): > 15 µM

Cc1cc(OCc2cccc(C(=N)N)c2)cc(OS(=O)(=O)c2ccccc2Cl)c1
inhibition [10]: 0%
Ki (Prothrombin): 0.099 µM
Ki (Serine protease 1): 1.5 µM

Cc1cc(OC[C@H]2CC[C@H](C(=N)N)CC2)cc(OS(=O)(=O)c2ccccc2Cl)c1
inhibition (Coagulation factor X [11]): 0%
Ki (Prothrombin): 2.1 µM
inhibition [12]: 0%

Cc1cc(OCc2ccc(C(=N)N)cc2)cc(OS(=O)(=O)c2ccccc2Cl)c1
Ki (Coagulation factor X [9]): 17 µM
inhibition [13]: 0%
Ki (Prothrombin): 0.11 µM
Ki (Serine protease 1): 2.7 µM
